Results reported in patent US20100105722A1, “Substituted 4,5,6,7-tetrahydrothienopyridines as KCNQ2/3 Modulators” (GRUENENTHAL GmbH, priority 2008, published 2010).
Read-outs that look alike come from different tables or passages of the source.

Target: T1, hKCNQ2/3 (Homo sapiens, UniProt O43525+O43526)
T1 construct: expressed in transfected cells; host or cells: CHO-K1
Test: Fluorescence assay using a voltage sensitive dye (fluorimetry)
Assay type: cell-based
Conditions: for Emax at 10 µM / Fluorimetry % Efficacy @ 10 μM (reti-gabine = 100%): relative to retigabine = 100%
Description: Fluorescence Assay using a Voltage Sensitive Dye
Human CHO-K1 cells expressing KCNQ2/3 channels are cultivated adherently at 37° C., 5% CO2 and 95% humidity in cell culture bottles (e.g. 80 cm^2 TC flasks, Nunc) with DMEM-high glucose (Sigma Aldrich, D7777) including 10% FCS (PAN Biotech, e.g. 3302-P270521) or alternatively MEM Alpha Medium (1×, liquid, Invitrogen, #22571), 10% fetal calf serum (FCS) (Invitrogen, #10270-106, heat-inactivated) and the necessary selection antibiotics.
Before being sown out for the measurements, the cells are washed with a 1×DPBS buffer without Ca^2+/Mg^2+ (e.g. Invitrogen, #14190-094) and detached from the bottom of the culture vessel by means of Accutase (PAA Laboratories, #L11-007) (incubation with Accutase for 15 min at 37° C.). The cell count then present is determined using a CASY™ cell counter (TCC model, Schärfe System) in order subsequently to apply, depending on the density optimization for the individual cell line, 20,000-30,000 cells/well/100 μl of the described nutrient medium to 96-well measuring plates of the Corning™ CellBIND™ type (Flat Clear Bottom Black Polystyrene Microplates, #3340). Incubation is then carried out for one hour at room temperature, without gassing or adjusting the humidity, followed by incubation for 24 hours at 37° C., 5% CO2 and 95% humidity.
The voltage-sensitive fluorescent dye from the Membrane Potential Assay Kit (Red™ Bulk format part R8123 for FLIPR, MDS Analytical Technologies™) is prepared by dissolving the contents of a vessel Membrane Potential Assay Kit Red Component A in 200 ml of extracellular buffer (ES buffer, 120 mM NaCl, 1 mM KCl, 10 mM HEPES, 2 mM CaCl2, 2 mM MgCl2, 10 mM glucose; pH 7.4). After removal of the nutrient medium, the cells are washed with 200 μl of ES buffer, then covered with a layer of 100 μl of the dye solution prepared above and incubated for 45 min at room temperature with the exclusion of light.
The fluorescence measurements are carried out with a BMG Labtech FLUOstar™, BMG Labtech NOVOstar™ or BMG Labtech POLARstar™ instrument (525 nm excitation, 560 nm emission, Bottom Read mode). After incubation of the dye, 50 μl of the test substances in the desired concentrations, or 50 μl of ES buffer for control purposes, are introduced into separate cavities of the measuring plate and incubated for 30 min at room temperature while being shielded from light. The fluorescence intensity of the dye is then measured for 5 min and the fluorescence value F1 of each well is thus determined at a given, constant time. 15 μl of a […] KCl solution ([…]) are then added to each well. The change in fluorescence is subsequently measured until all the relevant measured values have been obtained (mainly 5-30 min). At a given time after KCl application, a fluorescence value F2 is determined, in this case at the time of the fluorescence peak.
For calculation, the fluorescence intensity F2 is compared with the fluorescence intensity F1, and the agonistic activity of the target compound on the potassium channel is determined therefrom. F2 and F1 are calculated as follows: […]
In order to determine whether a substance has agonistic activity, […]
for example, can be compared with […]
is determined by adding to the reaction batch only the buffer solution instead of the test substance, determining the value F1K of the fluorescence intensity, adding the potassium ions as described above, and measuring a value F2K of the fluorescence intensity. F2K and F1K are then calculated as follows: […]
A substance has an agonistic activity on the potassium channel when […]
Independently of the comparison of […]
it is possible to conclude that a target compound has agonistic activity if an increase in […]
is to be observed as the dosage of the target compound increases.
Calculations of EC50 and IC50 values are carried out with the aid of ‘Prism v4.0’ software (GraphPad Software™).

[1] = CHO-K1 cells expressing KCNQ2/3, Table 3
[2] = CHO-K1, 10 μM, CHO-K1 cells expressing KCNQ2/3, Table 3, read-out: Fluorimetry % Efficacy @ 10 μM (reti-gabine = 100%)
[3] = 10 μM, CHO-K1 cells expressing KCNQ2/3, Table 3

Compound	EC50 [1]	Emax at 10 µM [2]	also measured
CCCCC1c2sccc2CCN1C(=O)CCC(=O)NCc1cccc(C(F)(F)F)c1 (stereo not shown) [compound 258]	306 nM	–	–
C[C@H](CC(=O)N1CCc2sccc2C1c1ccccc1)C(=O)NCc1cccc(C(F)(F)F)c1 (stereo partly shown) [compound 28]	540 nM	106%	–
O=C(NCc1cccc(C(F)(F)F)c1)C(CC(=O)N1CCc2sccc2C1c1ccccc1)c1ccccc1 (stereo not shown) [compound 27]	> 404 nM	119%	–
COc1ccccc1CNC(=O)CCC(=O)N1CCc2sccc2C1c1ccccc1 (stereo not shown) [compound 14]	–	-54%	–
CC(C)c1ccccc1C1c2ccsc2CCN1C(=O)CCC(=O)NCc1cccc(C(F)(F)F)c1 (stereo not shown) [compound 252]	1010 nM	–	–
Cc1ccc(CNC(=O)CCC(=O)N2CCc3sccc3C2c2ccccc2)cc1C(F)(F)F (stereo not shown) [compound 249]	347 nM	–	–
O=C(CCC(=O)N1CCc2sccc2C1c1ccccc1)NCc1cccc(C(F)(F)F)c1F (stereo not shown) [compound 40]	156 nM	–	–
Cc1ccsc1C1c2ccsc2CCN1C(=O)CCC(=O)NCc1cccc(C(F)(F)F)c1 (stereo not shown) [compound 254]	211 nM	–	–
Cc1ccccc1C1c2sccc2CCN1C(=O)CCC(=O)NCc1cccc(C(F)(F)F)c1 (stereo not shown) [compound 274]	323 nM	–	–
O=C(CCC(=O)N1CCc2sccc2C1c1ccccc1F)NCc1cccc(C(F)(F)F)c1 (stereo not shown) [compound 6]	284 nM	133%	–
Cc1cccc(C2c3ccsc3CCN2C(=O)CCC(=O)NCc2cccc(C(F)(F)F)c2)c1 (stereo not shown) [compound 4]	456 nM	102%	–
O=C(CCC(=O)N1CCn2cccc2C1c1cccs1)NCc1cccc(C(F)(F)F)c1 (stereo not shown) [Example No. 76 of WO 2008/046582, reference compound]	–	–	Emax at 10 µM (10 μM, comparison experiments table, read-out: Fluorimetry % Efficacy @ 10 μM (retigabine = 100%)): 113%; EC50 (comparison experiments table): 3290 nM
Cc1csc2c1C(c1ccccc1)N(C(=O)CCC(=O)NCc1cccc(C(F)(F)F)c1)CC2 (stereo not shown) [compound 20]	722 nM	54%	–
O=C(CCC(=O)N1CCc2sccc2C1c1ccccc1)NCc1ccc(F)c(C(F)(F)F)c1 (stereo not shown) [compound 250]	517 nM	–	–
Cc1ccc(C2c3ccsc3CCN2C(=O)CCC(=O)NCCCc2ccccc2)cc1 (stereo not shown) [compound 51]	–	38%	–
O=C(NCc1cccc(C(F)(F)F)c1)C1CCCCC1C(=O)N1CCc2sccc2C1c1ccccc1 (stereo not shown) [compound 32]	414 nM	–	Fluorimetry % Efficacy @ 10 μM (reti-gabine = 100%) [3]: 110%
Cc1ccccc1CNC(=O)CCC(=O)N1CCc2sccc2C1c1ccccc1 (stereo not shown) [compound 26]	–	-20%	–
O=C(CCC(=O)N1CCc2sccc2C1c1ccccc1)NCc1cccc(F)c1 (stereo not shown) [compound 18]	2180 nM	11%	–
O=C(NCc1cccc(C(F)(F)F)c1)C1CCCCC1C(=O)N1CCc2sccc2C1c1ccccc1 (mixture of isomers) [compound 31]	–	–	Fluorimetry % Efficacy @ 10 μM (reti-gabine = 100%) [3]: −44%; IC50 [1]: 250 nM
Cc1ccc(C2c3ccsc3CCN2C(=O)CCC(=O)NCc2cccc(C(F)(F)F)c2)cc1 (stereo not shown) [compound 5]	> 1660 nM	61%	–
Cc1ccccc1C1c2ccsc2CCN1C(=O)CCC(=O)NCc1ccccc1C(F)(F)F (stereo not shown) [compound 256]	90 nM	–	–
O=C(CCC(=O)N1CCc2sccc2C1c1ccccc1)NCc1cccc(C(F)(F)F)c1 (stereo not shown) [compound 35]	572 nM	–	–
O=C(CCC(=O)N1CCc2sccc2C1C1CCCCC1)NCc1cccc(C(F)(F)F)c1 (stereo not shown) [compound 21]	324 nM	148%	–
CCc1ccccc1C1c2ccsc2CCN1C(=O)CCC(=O)NCc1cccc(C(F)(F)F)c1 (stereo not shown) [compound 251]	131 nM	–	–
O=C(CCC(=O)N1CCc2sccc2C1c1ccccc1)N1CCc2c(cccc2C(F)(F)F)C1 (stereo not shown) [compound 271]	431 nM	–	–
Cc1ccccc1C1c2ccsc2CCN1C(=O)CCC(=O)NCc1ccc(C(F)(F)F)cc1 (stereo not shown) [compound 257]	547 nM	–	–
Cc1cc(F)ccc1C1c2ccsc2CCN1C(=O)CCC(=O)NCc1cccc(C(F)(F)F)c1 (stereo not shown) [compound 262]	166 nM	–	–
O=C(CCC(=O)N1CCc2sccc2C1c1ccccc1)NCc1ccc(C(F)(F)F)cc1 (stereo not shown) [compound 13]	375 nM	51%	–
